# Entries after “also recorded” stand apart in the source; their conditions may differ.
# Legend:
# C57BL/6J male mice = test: AMLN diet NASH mouse model, drug provided in the AMLN diet; assay type: in vivo; details: 60 mg/kg miricorilant in AMLN diet, 8 weeks; for Liver weight at termination of the study: vs diet-alone control (FIG. 8A)
# Protocol: Two studies were conducted in C57BL/6J male mice (n=12 per group) maintained on a diet high in fat (40%), cholesterol (2%) and fructose (20%; referred to as the AMLN diet: see, e.g., Tolbol et al., World Journal of Gastroenterology, 24(2):179-194 (2018)) for 42 weeks before dosing with miricorilant was initiated. In the first study, all animals ate the AMLN diet, and received either placebo, 30 mg/kg miricorilant, or 60 mg/kg mifepristone once per day orally. […] All animals received the AMLN diet for 42 weeks prior to receiving their first dose of study drug or placebo. 4 weeks prior to receiving that first dose, a liver biopsy and histological examination of biopsy tissue was performed for each animal; 3 weeks prior to receiving that first dose, animals were randomized into three groups: control, miricorilant, or mifepristone. Only mice with fibrosis stage >=1 and steatosis score >=2 were allowed in the study and the groups were stratified according to liver col1a1 so that each study group had similar overall distributions of liver col1a1 among the mice. All animals continued on the study diet for the 3 weeks following randomization, at which time study drug or placebo administration began. All animals received their assigned drugs for 8 weeks (the 8 week in vivo study period). At 56 days (week 8) after initiation of drug administration, plasma ALT, AST, triglycerides, total cholesterol, and miricorilant levels were measured, and animals were sacrificed, liver necropsies were performed, liver histological ((NAFLD Activity Score, Fibrosis Stage, steatosis (scored using hematoxylin and eosin staining (HE)), col1a (scored using immunohistochemistry (IHC)) and Galectin-3 (IHC)) and liver biochemical measurements (including liver triglycerides and total cholesterol) were made, and liver and plasma samples were obtained for genetic ((e.g., RNA sequencing) and other analyses.
# Thus, in these studies, the mice were subjected to a liver biopsy approximately 4 weeks before initiation of dosing with miricorilant and only mice with confirmed fibrosis (fibrosis stage ≥1) and steatosis (score ≥2) were entered into the study. At the end of the dosing period, blood samples were collected for determination of plasma ALT, AST, triglycerides, total cholesterol, and miricorilant. Liver samples were collected for analysis of triglycerides, total cholesterol, hydroxyproline, and histopathology. Body weight and food consumption were monitored throughout the study.
# Type I collagen IHC staining Type I collagen (Southern Biotech, Cat. 1310-01) IHC were performed using standard procedures. Briefly, after antigen retrieval and blocking of endogenous peroxidase activity, slides were incubated with primary antibody. The primary antibody was detected using a polymeric HRP-linker antibody conjugate. Next, the primary antibody was visualized with DAB as chromogen. Finally, sections were counterstained in hematoxylin and cover-slipped.
# Liver Galectin-3 content Galectin-3 (Biolegend, Cat. #125402) IHC was performed using standard procedures. Briefly, after antigen retrieval and blocking of endogenous peroxidase activity, slides were incubated with primary antibody. The primary antibody was detected using a linker secondary antibody followed by amplification using a polymeric HRP-linker antibody conjugate. Next, the primary antibody was visualized with DAB as chromogen. Finally, sections were counterstained in hematoxylin and cover-slipped.
# Total liver col1a1 was evaluated from liver samples stained with anti-type I collagen (col1a1) (Southern Biotech, cat. 1310-01) at the end of the treatment period (typically using low power (20×) magnification). Galectin-3 content was evaluated from images of liver samples stained with anti-Galectin-3 (BioLegend, Cat. 125402) at the end of the treatment period (typically using low power (20×) magnification). Terminal relative (left) and total (right) liver type I Collagen (Col1a1) quantification was determined by morphometry. […]
# [1] = Example 6 study: pharmacokinetics; details: human, in vivo, oral; one patient (FIG. 13)
# [2] = tested on: patients with presumed NASH; test: Example 6 study, dosing-regimen cohorts: liver fat content (MRI-PDFF) and markers; assay type: in vivo, human; details: for Mean reduction in LFC: Week 6 (FIG. 10)
# Protocol: This study was a double-blind, multi-center, placebo-controlled, randomized 3-arm phase 2a study (NCT03823703) conducted to assess the safety and efficacy of miricorilant in reducing liver fat content (LFC) in patients with presumed NASH. Adult patients (18-75 years) with presumed NASH were randomized 1:1:1 to miricorilant 600 mg daily, miricorilant 900 mg daily, or placebo for 12 weeks. […] Abbreviations used in this Example and in the Figures include: ALP, alkaline phosphatase; ALT, alanine aminotransferase; AST, aspartate aminotransferase; ELF, enhanced liver fibrosis; LFC, liver fat content; NASH, non-alcoholic steatohepatitis; ULN, upper limit of normal; AUC, area under the concentration-time curve; Cmax, maximum concentration; EOT, end of treatment; GGT, gamma-glutamyltransferase; INR, international normalized ratio; MRI-PDFF, magnetic resonance imaging-proton density fat fraction; pt, patient; SD, standard deviation; ULN, upper limit of normal; Wk, week.
# Key inclusion criteria included that the patients be adults between 18-75 years old; be presumed to suffer from NASH with fibrosis; have LFC as measured by MRI-PDFF≥8%; have levels of AST<5×ULN and ALT<5×ULN; and have eGFR>60 mL/min/1.73 m^2. Primary endpoints included relative change in LFC from baseline by MRI-PDFF. Secondary endpoints included change from baseline in AST, ALT, GGT, and change from baseline in ELF score.
# Patients were divided into different cohorts and received different regimens of miricorilant. The cohorts included patients receiving 30 mg mircorilant once per day; patients receiving 50 mg mircorilant once per day; patients receiving 100 mg mircorilant once per day; patients receiving 150 mg mircorilant once per day; patients receiving 100 mg mircorilant on Mondays, Wednesdays, and Fridays; patients receiving 100 mg mircorilant on Mondays and Fridays; and patients receiving 200 mg mircorilant once per week. Patients receiving 100 mg mircorilant on Mondays and Fridays were termed “Cohort 6”.
structure (smiles),measurement,setting,value
"O=c1[nH]c(=O)c(Cc2cccc(C(F)(F)F)c2)c([C@H]2CC[C@H](c3ccccc3)CC2)[nH]1 [miricorilant, (E)-6-(4-Phenylcyclohexyl)-5-(3-trifluoromethylbenzyl)-1H-pyrimidine-2,4-dione]",Relative and total liver Galectin-3 content,"C57BL/6J male mice; IHC morphometry, vs vehicle (FIG. 8C)",reduced
same,Total liver type I collagen (col1a1) content,"C57BL/6J male mice; IHC morphometry, vs vehicle, significant as total weight (FIG. 8B)",reduced
same,Body weight,C57BL/6J male mice; vs diet-alone control,significantly reduced
same,Liver weight at termination of the study,C57BL/6J male mice,reduced
same,Liver weight at termination of the study,C57BL/6J male mice; listed as Miricorilant,significantly reduced
same,AUC,[1],5900 ng·h/mL
same,Cmax,[1],404 ng/mL
same,Lipid levels (LDL and VLDL),"[2]; 100 mg twice per week, Mondays and Fridays (FIG. 16)",reductions
same,Glycemic markers,"[2]; 100 mg twice per week, Mondays and Fridays (FIG. 17)",reductions
same,Fibrosis markers,"[2]; 100 mg twice per week, Mondays and Fridays (FIG. 18)",reductions
same,LFC (MRI-PDFF) and liver enzyme levels (ALT and AST),"[2]; 100 mg twice per week, Mondays and Fridays, twelve weeks (FIG. 15)",reductions
same,Reduction in liver fat,"[2]; 100 mg twice weekly, over 12 weeks",−30%
same,LFC mean % change from baseline,"[2]; Cohort 6, miricorilant 100 mg twice weekly, week 12",−28.2%
same,LFC mean % change from baseline,"[2]; daily doses of miricorilant 50-150 mg, week 6",−22.3%
same,"Hepatic, lipid, and glycemic markers","[2]; miricorilant treatment, including 100 mg twice weekly",improvements; also recorded: improved
same,Weight loss,[2]; patients whose ALT and/or AST levels remain below 3 times normal,significant
same,Weight loss,[2]; patients whose ALT and/or AST levels rise above 3 times normal,even greater than for the other group
same,Slope of LFC decline,[2]; responders with ALT>3×ULN,−8.76
same,Slope of LFC decline,[2]; responders without ALT>3×ULN,−4.24
same,Mean reduction in LFC,[2]; treatment responders with ALT>3×ULN,−52.6%
same,Mean reduction in LFC,[2]; treatment responders without ALT>3×ULN,−25.5%

# — patent publication US12616698B2, “Methods for reducing liver fat and for treating fatty liver disorders” (Corcept Therapeutics Incorporated, priority 2021, dated 2026)
